Measured values from publication PMC10545732, “Structure-based drug discovery of a corticotropin-releasing hormone receptor 1 antagonist using an X-ray free-electron laser” (Experimental & Molecular Medicine, 2023).
“Also recorded” adds a separate entry of the source.

Columns and labels:
C57BL/6J mice = assay: Tail suspension test (TST); type: in vivo; details: 30 mg/kg orally for 3 days, test 2 h after third dose, last 4 min of 6 min
Description: C57BL/6J mice (male, 9–10 weeks old) were used for the behavioral tests. All mice were maintained under a 12:12-h light–dark cycle (lights on at 7:00 A.M.) with access to food and water ad libitum. Animal care and handling were performed according to guidelines by the Institutional Animal Care and Use Committee of Yonsei University (Seoul, Korea). Antalarmin, BMK-C203, and BMK-C205 were dissolved in peceol: TPGS: PEG400 (vehicle) (70%:20%:10%, respectively) and administered orally at a dose of 30 mg/kg for 3 days at 24-h intervals. All behavioral tests were conducted 2 h after the third drug was administered during light periods of the circadian cycle. TSTs were performed to verify the effect of CRF1R antagonists on depressive-like behavior. Each mouse was suspended by its tail on a bar 30 cm above the ground for 6 min using adhesive tape. Their movements were recorded by a camera and analyzed using the same parameters via EthoVision XT 8.5 software (Noldus Technologies). Immobility times during the last 4 min of the task were measured. Each mouse was placed in an open field (40 cm × 40 cm × 40 cm chamber) for 1 h to conduct an open field test (OFT) and test locomotion. Their locomotion was recorded and analyzed using EthoVision XT 8.5.

CRF1R = biological target: T1, CRF1R (Homo sapiens, UniProt P34998); assay: Calcium mobilization assay (hCRF1R Ca2+ antagonism); type: cell-based; details: for IC50: HEK-Gα15 cells transfected with CRF1R, urocortin 2 nM, n = 3
T1 construct: HEK-Gα15 cells (Eurofins Scientific) transfected with CRF1R; host or cells: HEK-Gα15 cells
T1 sequence (P34998 24-415): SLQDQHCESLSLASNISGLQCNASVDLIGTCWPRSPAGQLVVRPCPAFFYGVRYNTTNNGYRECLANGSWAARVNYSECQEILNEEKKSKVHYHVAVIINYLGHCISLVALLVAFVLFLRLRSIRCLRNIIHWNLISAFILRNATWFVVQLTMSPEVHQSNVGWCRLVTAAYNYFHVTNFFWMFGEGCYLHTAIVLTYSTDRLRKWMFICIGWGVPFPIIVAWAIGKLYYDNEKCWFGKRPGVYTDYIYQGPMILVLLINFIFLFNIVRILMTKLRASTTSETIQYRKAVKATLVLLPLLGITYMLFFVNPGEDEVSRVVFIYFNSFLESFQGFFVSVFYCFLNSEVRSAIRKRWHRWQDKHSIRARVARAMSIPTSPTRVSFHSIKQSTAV
Description: HEK-Gα15 cells (Eurofins Scientific) transfected with CRF1R were plated in 96-well plates at a density of 50,000 cells/100 μL per well and incubated overnight. The next day, the cells were incubated with a Calcium 6 reagent (Molecular Devices) containing 0.5 mM probenecid (Sigma) at 37 °C for 1 h before adding compounds or dimethyl sulfoxide DMSO (positive and negative control; final concentration 0.1%). After incubation at 37 °C for 1 h, 50 μL urocortin (final concentration 2 nM) (Tocris) was dispensed into the well with FLIPR-tetra (Molecular Devices). […] Intracellular calcium changes were recorded at excitation and emission wavelengths of 470–495 and 515–575 nm, respectively. Relative fluorescence units (RFU) were calculated as the fluorescence signal maximum minus the signal minimum for 30 s after addition. The graphs and IC50 concentrations were calculated using GraphPad Prism 6 software.

CYP3A4 = CYP3A4 (Homo sapiens, UniProt P08684); assay: CYP inhibition assay CYP3A4 (midazolam 1'-hydroxylase); details: 10 μM, human liver microsomes, n = 3
Description: Phenacetin O-demethylase, diclofenac 4-hydroxylase, S-mephenytoin 4-hydroxylase, dextromethorphan O-demethylase, and midazolam 1’-hydroxylase activities were determined as probe activities for CYP1A2, CYP2C9, CYP2C19, CYP2D6, and CYP3A4, respectively, using cocktail incubation. […] The cocktail incubation mixtures consisted of 0.25 mg/mL human liver microsomes, 0.1 M phosphate buffer (pH 7.4), an NADPH regeneration system, and inhibitors (CRF1R antagonist compounds, 10 µM) in a total volume of 100 μL. The final volume of the organic solvents in the incubation mixture was 1% (v/v). […] All incubations were performed in triplicate, and the mean values were used for analysis. The samples were then centrifuged at 15,000 rpm for 5 min at 4 °C. […] The CYP-mediated activities in the presence of inhibitors were expressed as percentages of the corresponding control values.

ACTH serum levels = assay: Serum ACTH level after TST (ELISA); type: in vivo, mice; details: 30 mg/kg orally for 3 days, immediately after TST
Description: The mice were anesthetized via intraperitoneal injections of 2,2,2-tribromoethanol (300 mg/kg, Sigma-Aldrich) immediately after the TST and before blood from the heart was sampled. Blood samples were collected in plastic tubes and incubated at room temperature for at least 2 h. The sera were extracted after centrifugation at 13,000×g for 10 min at 4 °C. CORT levels were determined via LC‒MS analysis. Serum (10 µL) was mixed with 20 μL of an internal standard solution (d4-cortisol) to prepare the samples. Subsequently, 100 μL of acetonitrile was added, and the mixture was centrifuged at 16,000×g for 10 min for protein precipitation. The supernatants (60 μL) were transferred into an autosampler vial, and 30 μL of water was added for efficient separation via high-performance liquid chromatography (HPLC). LC‒MS was performed with a triple quadrupole mass spectrometer coupled with HPLC using a C18 reversed-phase column. CORT levels were determined using a calibration curve constructed using CORT-spiked mouse serum. Serum samples (20 μL) were analyzed using a commercially available ELISA kit for ACTH (ab263880, Abcam) to measure ACTH serum levels.

PK studies in rats = type: in vivo, SD rats; details: for AUC(0-t) / half-life / Cmax / Tmax / bioavailability: male, Sprague-Dawley, rat, plasma, SD rats, n = 3
Description: CRF1R antagonist PKs were studied in naïve male SD rats following a single i.v. bolus injection or p.o. gavage. The i.v. injections used Antalarmin, BMK-C203, or BMK-C205 at doses of 5 mg/kg and BMK-I-152 at a dose of 1 mg/kg. The antagonist’s doses in the p.o. injection was 10 mg/kg. Three male SD rats weighing between 220 and 260 g were used to evaluate CRF1R antagonist PKs. The vehicle used for all dose groups was […]: TPGS: PEG400 (70%:20%:10%). Blood samples were collected from all treatment groups at 0 h (predose), 0.083, 0.25, 0.5, 1, 2, 4, 6, 8, and 24 h after dosing. Antalarmin, BMK-I-152, BMK-C203, and BMK-C205 concentrations in the plasma samples were determined via LC‒MS/MS (LLOQ was 1 ng/mL for CRF1R antagonists). PK parameter estimates were determined using the serial time-course profiles for plasma concentrations of three male rats per group via noncompartmental analysis using commercially available software (Phoenix WinNonlin, version 8.1, Pharsight Corporation, Mountain View, CA).

Sequence of CYP3A4 (P08684 whole entry): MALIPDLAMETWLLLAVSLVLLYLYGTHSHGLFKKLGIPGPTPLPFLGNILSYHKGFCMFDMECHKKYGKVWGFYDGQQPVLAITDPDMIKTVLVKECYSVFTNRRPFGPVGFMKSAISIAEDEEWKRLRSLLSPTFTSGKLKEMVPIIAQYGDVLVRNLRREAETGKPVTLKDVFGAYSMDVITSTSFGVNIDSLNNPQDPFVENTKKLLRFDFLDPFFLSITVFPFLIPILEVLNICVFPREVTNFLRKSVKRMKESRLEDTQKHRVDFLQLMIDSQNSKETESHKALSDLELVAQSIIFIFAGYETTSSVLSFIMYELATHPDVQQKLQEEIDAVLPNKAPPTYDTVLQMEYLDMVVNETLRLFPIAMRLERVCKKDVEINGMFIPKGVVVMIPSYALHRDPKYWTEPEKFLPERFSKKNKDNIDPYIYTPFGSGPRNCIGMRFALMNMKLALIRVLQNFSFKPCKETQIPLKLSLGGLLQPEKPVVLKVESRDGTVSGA

Row | IC50 (CRF1R) | AUC(0-t) (PK studies in rats; iv, I.V, 5 mg/kg) | half-life (PK studies in rats; iv, I.V, 5 mg/kg) | AUC(0-t) (PK studies in rats; po, P.O, 10 mg/kg) | Cmax (PK studies in rats; po, P.O, 10 mg/kg) | Tmax (PK studies in rats; po, P.O, 10 mg/kg) | bioavailability (PK studies in rats; po, P.O, 10 mg/kg) | half-life (PK studies in rats; po, P.O, 10 mg/kg) | IC50 relative to BMK-C203 (CRF1R; hCRF1R Ca2+ antagonism assay) | serum concentration relative to BMK-C203 (PK studies in rats; 2 h after oral administration in the PK test) | SMILES | TST immobility time versus vehicle (C57BL/6J mice) | CYP3A4, percentage of control activity (CYP3A4) | serum ACTH level versus vehicle (ACTH serum levels)
1 | 280 nM | 20600 ng·h/mL | 4.76 h | 16100 ng·h/mL | 1370 ng/mL | 4.67 h | 39.5% | 4.22 h | – | – | COc1cc(Br)cc(OC)c1-c1c(C)nn2c(N(CCCC(F)(F)F)CCCC(F)(F)F)nc(C)nc12 [BMK-C203] | did not significantly affect | 90.5 ± 2.9 percentage of control activity | decreased; also recorded: lower than those in the vehicle group; also recorded: significantly affected
2 | 74 nM | 22900 ng·h/mL | 6.5 h | 9880 ng·h/mL | 2400 ng/mL | 2 h | 21.6% | 3.87 h | fourfold lower | twice as high | CCCCN(CC1CC1)c1nc(C)nc2c(-c3c(OC)cc(Br)cc3OC)c(C)nn12 [BMK-C205] | significantly decreased; also recorded: more mobile than the vehicle group | > 100 ± 6.2 percentage of control activity | decreased; also recorded: lower than those in the vehicle group
